Source: the supplement of paper PMC8671470

What was measured:
Details in all cases: 72 h
BV-173 [1] = tested on: BV-173
Method in brief: (§1)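 In 384-well plates holding acoustically pre-printed compounds at five tenfold doses from 1 to 10,000 nM, in duplicate, fifteen myeloid leukaemia cell lines were grown in RPMI 1640 for 72 h at 37 °C with 5% CO2. Luminescent ATP viability was scaled between vehicle and a positive control at 10 µM. The IC50 was then taken from log-logistic dose–response fits with four parameters.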

HEL [2] = tested on: HEL
Method in brief: as §1

HL-60 [3] = tested on: HL-60
Method in brief: as §1

K-562 [4] = tested on: K-562
Method in brief: as §1

KCL-22 [5] = tested on: KCL-22
Method in brief: as §1

KG-1 [6] = tested on: KG-1
Method in brief: as §1

KU-812 [7] = tested on: KU-812
Method in brief: as §1

LAMA-84 [8] = tested on: LAMA-84
Method in brief: as §1

ML-2 [9] = tested on: ML-2
Method in brief: as §1

MOLM-13 [10] = tested on: MOLM-13
Method in brief: as §1

MV4-11 [11] = tested on: MV4-11
Method in brief: as §1

Mono-Mac-6 [12] = tested on: Mono-Mac-6
Method in brief: as §1

NOMO-1 [13] = tested on: NOMO-1
Method in brief: as §1

SHI-1 [14] = tested on: SHI-1
Method in brief: as §1

THP-1 [15] = tested on: THP-1
Method in brief: as §1

BV-173 [16] = experiment: cell viability (% survival relative to DMSO control, bortezomib = 0%); higher = less cytotoxic
Method in brief: (§2)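 After 72 h at 37 °C with 5% CO2, cell viability in 384-well plates was measured by CellTiter-Glo luminescence. The plates held compounds pre-printed at 1, 10, 100, 1000 or 10000 nM in duplicate, and cells from 10 AML and 5 CML lines seeded at densities titrated to linear growth. Percent survival is the duplicate mean, normalised to vehicle as 100% and a 10 µM positive control as 0%.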

HEL [17] = experiment: as above
Method in brief: as §2

HL-60 [18] = experiment: as above
Method in brief: as §2

K-562 [19] = experiment: as above
Method in brief: as §2

KCL-22 [20] = experiment: as above
Method in brief: as §2

KG-1 [21] = experiment: as above
Method in brief: as §2

KU-812 [22] = experiment: as above
Method in brief: as §2

LAMA-84 [23] = experiment: as above
Method in brief: as §2

ML-2 [24] = experiment: as above
Method in brief: as §2

MOLM-13 [25] = experiment: as above
Method in brief: as §2

MV4-11 [26] = experiment: as above
Method in brief: as §2

Mono-Mac-6 [27] = experiment: as above
Method in brief: as §2

NOMO-1 [28] = experiment: as above
Method in brief: as §2

SHI-1 [29] = experiment: as above
Method in brief: as §2

THP-1 [30] = experiment: as above
Method in brief: as §2

CO[C@H]1C[C@@H]2CC[C@@H](C)[C@@](O)(O2)C(=O)C(=O)N2CCCC[C@H]2C(=O)O[C@H]([C@H](C)C[C@@H]2CC[C@@H](OC(=O)C(C)(CO)CO)[C@H](OC)C2)CC(=O)[C@H](C)/C=C(\C)[C@@H](O)[C@@H](OC)C(=O)[C@H](C)C[C@H](C)/C=C/C=C/C=C/1C [Temsirolimus]
Details	IC50 (cell viability) [µM]
BV-173 [1]	0.0039
HEL [2]	1.15
HL-60 [3]	0.148
K-562 [4]	0.00535
KCL-22 [5]	0.0133
KG-1 [6]	0.00205
KU-812 [7]	0.00111
LAMA-84 [8]	0.0208
ML-2 [9]	2.59
MOLM-13 [10]	0.00198
MV4-11 [11]	0.0611
Mono-Mac-6 [12]	0.00487
NOMO-1 [13]	4.42
SHI-1 [14]	0.0283
THP-1 [15]	0.0539

cell viability [%]
Details	1 nM	10 nM	100 nM	1000 nM	10000 nM
BV-173 [16]	96.5	54.8	57.6	45.7	39.5
HEL [17]	101	85.3	77.3	65.2	46.3
HL-60 [18]	101	96.8	90	73.4	73
K-562 [19]	94.8	58.4	47.2	44.7	33.5
KCL-22 [20]	95.8	58.5	47.8	32.5	23.6
KG-1 [21]	80.8	47.2	46.5	39.2	33.6
KU-812 [22]	71.8	42.9	44.7	38.8	36.1
LAMA-84 [23]	90.6	63.2	65	49.2	40.9
ML-2 [24]	84.3	71.5	70.4	60.3	38.2
MOLM-13 [25]	78.5	41.6	40.9	29.8	30.6
MV4-11 [26]	89.6	63.6	62.3	53.2	37.3
Mono-Mac-6 [27]	99.2	49.4	48	35.1	38
NOMO-1 [28]	79.9	67.5	76.8	60.9	52.9
SHI-1 [29]	93.3	71.2	80.4	58.8	59.3
THP-1 [30]	91.6	75	76.8	57.3	55.6

CN1CCN(CCCN2c3ccccc3Sc3ccc(C(F)(F)F)cc32)CC1 [Trifluoperazine]
Details	IC50 (cell viability) [µM]
BV-173 [1]	> 10
HEL [2]	> 10
HL-60 [3]	5.18
K-562 [4]	2.91
KCL-22 [5]	3.49
KG-1 [6]	3.54
KU-812 [7]	> 10
LAMA-84 [8]	> 10
ML-2 [9]	9.55
MOLM-13 [10]	> 10
MV4-11 [11]	9.52
Mono-Mac-6 [12]	> 10
NOMO-1 [13]	> 10
SHI-1 [14]	> 10
THP-1 [15]	> 10

cell viability [%]
Details	1 nM	10 nM	100 nM	1000 nM	10000 nM
BV-173 [16]	97.3	94.8	103	97.6	55.3
HEL [17]	110	82.7	99.9	86.5	65.1
HL-60 [18]	100	101	88.6	95.3	20.2
K-562 [19]	113	89.5	85.1	92	0.986
KCL-22 [20]	108	109	115	78.1	42.1
KG-1 [21]	106	103	100	79.8	42.8
KU-812 [22]	101	94	97.8	86.3	65.6
LAMA-84 [23]	101	100	98.8	83	76.5
ML-2 [24]	102	102	103	95.9	48.4
MOLM-13 [25]	105	85.4	101	93.2	57.7
MV4-11 [26]	99.5	79.6	93.8	89.9	50.3
Mono-Mac-6 [27]	108	112	90.4	83.2	66.6
NOMO-1 [28]	104	108	101	88.3	81
SHI-1 [29]	113	96.2	103	92.1	64.4
THP-1 [30]	97.9	102	100	87.6	72.4

CC[C@H](C)[C@H](N)C(=O)N1CCSC1 [P32/98]
Details	IC50 (cell viability) [µM]
BV-173 [1]	> 10
HEL [2]	> 10
HL-60 [3]	> 10
K-562 [4]	> 10
KCL-22 [5]	> 10
KG-1 [6]	> 10
KU-812 [7]	> 10
LAMA-84 [8]	> 10
ML-2 [9]	> 10
MOLM-13 [10]	> 10
MV4-11 [11]	> 10
Mono-Mac-6 [12]	> 10
NOMO-1 [13]	> 10
SHI-1 [14]	> 10
THP-1 [15]	> 10

cell viability [%]
Details	1 nM	10 nM	100 nM	1000 nM	10000 nM
BV-173 [16]	96.2	95.3	96.7	115	84
HEL [17]	105	98.7	109	107	105
HL-60 [18]	88.1	103	108	98.6	76.7
K-562 [19]	101	98.6	96.6	101	100
KCL-22 [20]	96.8	97.3	107	98.2	100
KG-1 [21]	97.9	110	108	112	137
KU-812 [22]	97.7	92.3	92.6	103	97.9
LAMA-84 [23]	96.6	102	102	106	103
ML-2 [24]	102	102	102	103	91.2
MOLM-13 [25]	84.3	87.8	99.7	103	97.4
MV4-11 [26]	98.7	110	106	96.9	108
Mono-Mac-6 [27]	93.6	99	109	103	101
NOMO-1 [28]	102	102	99.6	102	92.9
SHI-1 [29]	111	99.9	103	97.1	88.5
THP-1 [30]	96.8	105	112	104	106
